Measured values from paper PMC6325638 (Clinics in liver disease, 2017).
Read-outs that look alike come from different tables or passages of the source.

What was measured:
zebrafish larvae [1] = tested on: zebrafish larvae
zebrafish larvae [2] = settings: in vivo
cultured rat hepatocytes = test: ROS induction and death in cultured hepatocytes; type: cell-based; settings: 96-well plates, oxyethidium fluorescence
[3] = tested on: 3D multicellular microphysiological systems (MPS) of the human liver; settings: 3D multicellular microfluidic human liver model; cited from earlier work
[4] = 72 hpf zebrafish larvae, 0.66 μM
[5] = 72 hpf zebrafish larvae, 6.6 μM
[6] = 72 hpf zebrafish larvae, 200 μM
[7] = 72 hpf zebrafish larvae, 0.07 μM
[8] = 72 hpf zebrafish larvae, 0.2 μM

CCCCc1oc2ccccc2c1C(=O)c1cc(I)c(OCCN(CC)CC)c(I)c1 [Amiodarone]
Live/dead (translucent = live, opaque = dead) (zebrafish larvae [1]; [4]): 4/0 | Live/dead (translucent = live, opaque = dead) (zebrafish larvae [1]; 72 hpf zebrafish larvae, 2 μM): 4/0 | Live/dead (translucent = live, opaque = dead) (zebrafish larvae [1]; [5]): 4/0 | Live/dead (translucent = live, opaque = dead) (zebrafish larvae [1]; 72 hpf zebrafish larvae, 20 μM): 4/0 | Live/dead (translucent = live, opaque = dead) (zebrafish larvae [1]; 72 hpf zebrafish larvae, 66 μM): 0/4 | Live/dead (translucent = live, opaque = dead) (zebrafish larvae [1]; [6]): 0/4

N#CC(C#N)=NNc1cccc(Cl)c1 [CCCP, Carbonyl cyandide m-chorophenyl hydrazone]
Live/dead (translucent = live, opaque = dead) (zebrafish larvae [1]; [7]): 4/0 | Visual toxicity (bent tail, distended peritoneum, edema, pericardial congestion) (zebrafish larvae [1]; [7]): 2/4 | Live/dead (translucent = live, opaque = dead) (zebrafish larvae [1]; [8]): 4/0 | Visual toxicity (bent tail, distended peritoneum, edema, pericardial congestion) (zebrafish larvae [1]; [8]): 4/4 | Live/dead (translucent = live, opaque = dead) (zebrafish larvae [1]; [4]): 4/0 | Visual toxicity (bent tail, distended peritoneum, edema, pericardial congestion) (zebrafish larvae [1]; [4]): 3/4 | Live/dead (translucent = live, opaque = dead) (zebrafish larvae [1]; 72 hpf zebrafish larvae, 2 μM): 4/0 | Visual toxicity (bent tail, distended peritoneum, edema, pericardial congestion) (zebrafish larvae [1]; 72 hpf zebrafish larvae, 2 μM): 3/4 | Live/dead (translucent = live, opaque = dead) (zebrafish larvae [1]; [5]): 4/0 | Visual toxicity (bent tail, distended peritoneum, edema, pericardial congestion) (zebrafish larvae [1]; [5]): 2/4 | Visual toxicity (bent tail, distended peritoneum, edema, pericardial congestion) (zebrafish larvae [1]; 72 hpf zebrafish larvae, 20 μM): 0/1

Cn1c(=O)c2c(ncn2C)n(C)c1=O [Caffeine]
Live/dead (translucent = live, opaque = dead) (zebrafish larvae [1]; 72 hpf zebrafish larvae, 3 μM): 4/0 | Live/dead (translucent = live, opaque = dead) (zebrafish larvae [1]; 72 hpf zebrafish larvae, 10 μM): 4/0 | Live/dead (translucent = live, opaque = dead) (zebrafish larvae [1]; 72 hpf zebrafish larvae, 30 μM): 4/0 | Live/dead (translucent = live, opaque = dead) (zebrafish larvae [1]; 72 hpf zebrafish larvae, 100 μM): 4/0 | Live/dead (translucent = live, opaque = dead) (zebrafish larvae [1]; 72 hpf zebrafish larvae, 300 μM): 4/0 | Live/dead (translucent = live, opaque = dead) (zebrafish larvae [1]; 72 hpf zebrafish larvae, 1000 μM): 4/0

CC1=CC(=O)c2ccccc2C1=O [Menadione]
Generation of ROS in zebrafish (zebrafish larvae [2]): time-dependent and dose-dependent generation of ROS | ROS induction and death in cultured hepatocytes (cultured rat hepatocytes): ROS induction and death in cultured hepatocytes | Live/dead (translucent = live, opaque = dead) (zebrafish larvae [1]; [4]): 4/0 | Live/dead (translucent = live, opaque = dead) (zebrafish larvae [1]; 72 hpf zebrafish larvae, 2 μM): 4/0 | Live/dead (translucent = live, opaque = dead) (zebrafish larvae [1]; [5]): 4/0 | Live/dead (translucent = live, opaque = dead) (zebrafish larvae [1]; 72 hpf zebrafish larvae, 20 μM): 0/4 | Live/dead (translucent = live, opaque = dead) (zebrafish larvae [1]; 72 hpf zebrafish larvae, 66 μM): 0/4 | Live/dead (translucent = live, opaque = dead) (zebrafish larvae [1]; [6]): 0/4 | Visual toxicity (bent tail, distended peritoneum, edema, pericardial congestion) (zebrafish larvae [1]; zebrafish, in vivo, 0.66 μM): 0/4 | Visual toxicity (bent tail, distended peritoneum, edema, pericardial congestion) (zebrafish larvae [1]; zebrafish, in vivo, 2 μM): 2/4 | Visual toxicity (bent tail, distended peritoneum, edema, pericardial congestion) (zebrafish larvae [1]; zebrafish, in vivo, 6.6 μM): 1/4

C=C(C)[C@H]1Cc2c(ccc3c2O[C@@H]2COc4cc(OC)c(OC)cc4[C@@H]2C3=O)O1 [Rotenone]
Live/dead (translucent = live, opaque = dead) (zebrafish larvae [1]; [7]): 4/0 | Visual toxicity (bent tail, distended peritoneum, edema, pericardial congestion) (zebrafish larvae [1]; [7]): 2/4 | Live/dead (translucent = live, opaque = dead) (zebrafish larvae [1]; [8]): 4/0 | Visual toxicity (bent tail, distended peritoneum, edema, pericardial congestion) (zebrafish larvae [1]; [8]): 3/4 | Live/dead (translucent = live, opaque = dead) (zebrafish larvae [1]; [4]): 4/0 | Visual toxicity (bent tail, distended peritoneum, edema, pericardial congestion) (zebrafish larvae [1]; [4]): 2/4 | Live/dead (translucent = live, opaque = dead) (zebrafish larvae [1]; 72 hpf zebrafish larvae, 2 μM): 4/0 | Visual toxicity (bent tail, distended peritoneum, edema, pericardial congestion) (zebrafish larvae [1]; 72 hpf zebrafish larvae, 2 μM): 1/4 | Visual toxicity (bent tail, distended peritoneum, edema, pericardial congestion) (zebrafish larvae [1]; [5]): 0/3 | Live/dead (translucent = live, opaque = dead) (zebrafish larvae [1]; 72 hpf zebrafish larvae, 20 μM): 1/4 | Visual toxicity (bent tail, distended peritoneum, edema, pericardial congestion) (zebrafish larvae [1]; 72 hpf zebrafish larvae, 20 μM): 1/1

CN(Cc1cnc2nc(N)nc(N)c2n1)c1ccc(C(=O)N[C@@H](CCC(=O)O)C(=O)O)cc1 [methotrexate]
Chronic drug effect in human liver MPS [3]: induction of fibrosis
